Measurements reported in ChEMBL document CHEMBL1138114, “Convergent, parallel synthesis of a series of beta-substituted 1,2,4-oxadiazole butanoic acids as potent and selective alpha(v)beta3 receptor antagonists” (Bioorg Med Chem Lett, 2006).
pIC50: −log10 of the molar value.

Key:
Integrin alpha-V/beta-3 [1] = biological target: T1, Integrin alpha-V/beta-3 (Homo sapiens, UniProt P05106+P06756); experiment: Inhibition of Integrin alphav-beta3 receptor by SPRA assay; assay type: protein-complex assay
[2] = biological target: Integrin alpha-IIb/beta-3 (Homo sapiens, UniProt P05106+P08514); experiment: Inhibition of Integrin alpha-2b-beta-3 receptor by SPRA assay; assay type: protein-complex assay
Integrin alpha-V/beta-3 [3] = biological target: T1, Integrin alpha-V/beta-3; experiment: Inhibition of Integrin alphav-beta3 receptor expressed in HEK293 cells; assay type: cell-based
Integrin alpha-V/beta-5 = Integrin alpha-V/beta-5 (Homo sapiens, UniProt P06756+P18084); experiment: Inhibition of Integrin alphav-beta5 receptor expressed in HEK293 cell line; assay type: cell-based
Integrin alpha-V/beta-6 = Integrin alpha-V/beta-6 (Homo sapiens, UniProt P06756+P18564); experiment: Inhibition of Integrin alphav-beta6 receptor expressed in HT29 cell line; assay type: cell-based, HT-29
Integrin alpha-V/beta-1 = Integrin alpha-V/beta-1 (Homo sapiens, UniProt P05556+P06756); experiment: Inhibition of Integrin alphav-beta1 receptor expressed in HEK293 cell line; assay type: cell-based
[4] = Volume of distribution in rat at 5 mg/kg, iv; assay type: ADME, organism-based; set-up: dose 5 mg/kg, route intravenous; conditions: in vivo, read-out: Vdss
[5] = Bioavailability in rat at 5 mg/kg, iv; assay type: ADME, organism-based; conditions: in vivo
[6] = Half life in rat at 5 mg/kg, iv; assay type: ADME, organism-based; set-up: dose 5 mg/kg, route intravenous; conditions: in vivo
Rattus norvegicus = experiment: AUC/dose(mg/kg) in orally dosed rat at 10 mg/kg; assay type: ADME, organism-based, Plasma; set-up: dose 10 mg/kg, route oral; conditions: in vivo, po
[7] = Clearance in rat at 5 mg/kg, iv; assay type: ADME, organism-based; set-up: dose 5 mg/kg, route intravenous; conditions: in vivo

Sequence of Integrin alpha-V/beta-1 (P05556 21-798 limits assumed): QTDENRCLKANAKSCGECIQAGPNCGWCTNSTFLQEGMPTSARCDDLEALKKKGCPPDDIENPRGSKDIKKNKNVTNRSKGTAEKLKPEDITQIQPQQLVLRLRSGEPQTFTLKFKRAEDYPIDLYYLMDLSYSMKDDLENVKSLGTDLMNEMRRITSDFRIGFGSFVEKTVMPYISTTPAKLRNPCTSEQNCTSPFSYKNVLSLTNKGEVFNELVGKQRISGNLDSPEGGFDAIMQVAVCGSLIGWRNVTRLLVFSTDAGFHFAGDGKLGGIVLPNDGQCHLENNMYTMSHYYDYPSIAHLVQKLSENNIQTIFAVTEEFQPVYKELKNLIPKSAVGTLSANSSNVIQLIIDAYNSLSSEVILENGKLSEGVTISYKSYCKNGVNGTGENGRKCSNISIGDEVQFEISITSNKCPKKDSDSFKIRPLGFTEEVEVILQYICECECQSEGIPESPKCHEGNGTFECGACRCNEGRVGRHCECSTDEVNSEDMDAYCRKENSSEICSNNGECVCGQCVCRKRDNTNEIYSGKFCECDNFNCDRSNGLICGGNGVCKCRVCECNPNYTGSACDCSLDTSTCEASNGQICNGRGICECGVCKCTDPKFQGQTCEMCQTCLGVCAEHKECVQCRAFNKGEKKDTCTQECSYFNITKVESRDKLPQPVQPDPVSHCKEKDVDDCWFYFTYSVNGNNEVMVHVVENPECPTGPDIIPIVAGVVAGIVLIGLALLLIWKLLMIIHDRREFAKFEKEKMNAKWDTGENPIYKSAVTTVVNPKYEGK
Sequence of Integrin alpha-V/beta-1 (P06756 31-889 limits assumed): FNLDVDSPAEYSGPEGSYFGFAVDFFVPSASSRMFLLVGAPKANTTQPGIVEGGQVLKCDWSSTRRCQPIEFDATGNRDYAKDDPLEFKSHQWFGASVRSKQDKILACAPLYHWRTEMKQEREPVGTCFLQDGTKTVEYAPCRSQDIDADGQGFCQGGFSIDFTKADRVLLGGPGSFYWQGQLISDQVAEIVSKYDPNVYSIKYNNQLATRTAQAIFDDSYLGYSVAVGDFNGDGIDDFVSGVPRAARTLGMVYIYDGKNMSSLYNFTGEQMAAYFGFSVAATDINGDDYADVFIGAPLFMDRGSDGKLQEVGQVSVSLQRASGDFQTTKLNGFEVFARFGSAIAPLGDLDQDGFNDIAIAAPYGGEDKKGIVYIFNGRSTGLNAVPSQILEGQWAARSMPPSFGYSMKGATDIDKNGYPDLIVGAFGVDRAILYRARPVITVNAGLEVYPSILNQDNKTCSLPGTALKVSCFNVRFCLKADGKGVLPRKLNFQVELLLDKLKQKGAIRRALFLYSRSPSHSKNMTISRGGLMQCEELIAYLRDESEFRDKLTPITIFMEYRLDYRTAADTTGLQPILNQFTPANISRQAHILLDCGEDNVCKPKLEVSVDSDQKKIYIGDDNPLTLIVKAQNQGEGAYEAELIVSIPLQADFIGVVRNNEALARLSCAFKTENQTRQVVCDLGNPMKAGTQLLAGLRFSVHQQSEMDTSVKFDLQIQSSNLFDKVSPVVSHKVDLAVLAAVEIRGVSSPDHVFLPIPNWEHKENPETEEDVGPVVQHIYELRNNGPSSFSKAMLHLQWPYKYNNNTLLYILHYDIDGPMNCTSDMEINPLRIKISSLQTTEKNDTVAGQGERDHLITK
Sequence of Integrin alpha-V/beta-1 (P06756 891-1048 limits assumed): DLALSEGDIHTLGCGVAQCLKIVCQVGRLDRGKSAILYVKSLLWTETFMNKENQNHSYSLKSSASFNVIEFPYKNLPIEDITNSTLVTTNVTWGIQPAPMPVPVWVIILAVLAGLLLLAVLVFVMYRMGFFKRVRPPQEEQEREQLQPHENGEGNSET
Sequence of Integrin alpha-V/beta-5 (P06756 31-889 limits assumed): as the sequence (P06756 31-889 limits assumed) above
Sequence of Integrin alpha-V/beta-5 (P06756 891-1048 limits assumed): as the sequence (P06756 891-1048 limits assumed) above
Sequence of Integrin alpha-V/beta-5 (P18084 24-799 limits assumed): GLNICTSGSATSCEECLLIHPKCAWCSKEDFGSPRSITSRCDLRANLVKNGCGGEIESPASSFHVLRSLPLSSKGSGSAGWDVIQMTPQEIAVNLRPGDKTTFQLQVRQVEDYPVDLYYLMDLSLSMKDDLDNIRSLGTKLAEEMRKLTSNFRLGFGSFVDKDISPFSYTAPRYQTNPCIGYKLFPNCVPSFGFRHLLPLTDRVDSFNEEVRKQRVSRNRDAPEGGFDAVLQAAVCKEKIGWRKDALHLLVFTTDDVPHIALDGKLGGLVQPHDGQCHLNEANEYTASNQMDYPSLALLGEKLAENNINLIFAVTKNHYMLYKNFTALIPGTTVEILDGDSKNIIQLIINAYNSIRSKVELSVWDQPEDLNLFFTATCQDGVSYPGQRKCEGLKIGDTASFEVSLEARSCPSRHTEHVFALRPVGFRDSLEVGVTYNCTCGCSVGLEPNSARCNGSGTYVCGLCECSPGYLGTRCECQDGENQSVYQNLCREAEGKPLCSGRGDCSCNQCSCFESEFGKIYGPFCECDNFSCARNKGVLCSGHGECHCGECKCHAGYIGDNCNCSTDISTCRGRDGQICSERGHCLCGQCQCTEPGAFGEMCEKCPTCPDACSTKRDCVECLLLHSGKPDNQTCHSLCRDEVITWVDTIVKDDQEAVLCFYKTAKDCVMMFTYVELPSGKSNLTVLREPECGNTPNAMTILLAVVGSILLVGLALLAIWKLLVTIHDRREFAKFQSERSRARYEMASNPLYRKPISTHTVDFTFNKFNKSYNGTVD
Sequence of Integrin alpha-V/beta-6 (P06756 31-889 limits assumed): as the sequence (P06756 31-889 limits assumed) above
Sequence of Integrin alpha-V/beta-6 (P06756 891-1048 limits assumed): as the sequence (P06756 891-1048 limits assumed) above
Sequence of Integrin alpha-V/beta-6 (P18564 22-788 limits assumed): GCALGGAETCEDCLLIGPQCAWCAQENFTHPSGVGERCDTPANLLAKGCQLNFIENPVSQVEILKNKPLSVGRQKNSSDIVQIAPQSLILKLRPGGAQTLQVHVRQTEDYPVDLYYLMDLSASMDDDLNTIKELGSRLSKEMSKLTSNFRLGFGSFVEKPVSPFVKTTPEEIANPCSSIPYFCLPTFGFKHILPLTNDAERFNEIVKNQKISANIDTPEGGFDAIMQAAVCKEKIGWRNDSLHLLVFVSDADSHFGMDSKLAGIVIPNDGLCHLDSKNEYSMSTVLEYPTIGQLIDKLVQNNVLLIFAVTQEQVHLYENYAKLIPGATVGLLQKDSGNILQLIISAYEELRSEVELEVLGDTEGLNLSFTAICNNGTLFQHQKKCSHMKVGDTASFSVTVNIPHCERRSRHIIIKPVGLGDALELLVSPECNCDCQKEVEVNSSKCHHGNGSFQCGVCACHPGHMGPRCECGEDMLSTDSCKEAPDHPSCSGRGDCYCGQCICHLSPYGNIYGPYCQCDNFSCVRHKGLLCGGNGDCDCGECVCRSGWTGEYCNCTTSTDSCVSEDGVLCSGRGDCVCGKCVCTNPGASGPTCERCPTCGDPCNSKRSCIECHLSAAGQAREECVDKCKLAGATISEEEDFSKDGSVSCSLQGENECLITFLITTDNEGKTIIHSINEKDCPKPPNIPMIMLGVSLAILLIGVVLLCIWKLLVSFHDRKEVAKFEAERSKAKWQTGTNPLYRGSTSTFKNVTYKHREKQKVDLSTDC
T1 sequence (P05106 27-788 limits assumed): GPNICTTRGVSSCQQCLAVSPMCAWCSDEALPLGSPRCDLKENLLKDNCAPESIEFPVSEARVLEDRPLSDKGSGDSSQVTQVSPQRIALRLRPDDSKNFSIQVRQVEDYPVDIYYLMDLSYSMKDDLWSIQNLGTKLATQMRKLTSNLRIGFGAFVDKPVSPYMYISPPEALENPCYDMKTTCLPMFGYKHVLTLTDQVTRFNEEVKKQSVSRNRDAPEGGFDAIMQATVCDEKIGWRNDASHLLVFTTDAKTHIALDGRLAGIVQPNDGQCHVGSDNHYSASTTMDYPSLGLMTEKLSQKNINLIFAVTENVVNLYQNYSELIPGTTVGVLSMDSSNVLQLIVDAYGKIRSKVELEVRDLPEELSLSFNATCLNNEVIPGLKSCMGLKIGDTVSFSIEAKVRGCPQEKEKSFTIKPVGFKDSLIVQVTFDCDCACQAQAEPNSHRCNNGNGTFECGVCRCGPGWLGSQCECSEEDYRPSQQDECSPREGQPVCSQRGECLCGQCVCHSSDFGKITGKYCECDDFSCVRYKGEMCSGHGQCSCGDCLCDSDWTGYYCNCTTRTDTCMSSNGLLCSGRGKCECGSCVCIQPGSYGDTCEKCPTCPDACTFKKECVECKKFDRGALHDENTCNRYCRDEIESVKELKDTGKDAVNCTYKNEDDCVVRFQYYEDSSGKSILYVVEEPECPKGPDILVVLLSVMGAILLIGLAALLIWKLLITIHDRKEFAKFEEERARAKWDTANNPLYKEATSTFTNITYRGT
T1 sequence (P06756 31-889 limits assumed): as the sequence (P06756 31-889 limits assumed) above
T1 sequence (P06756 891-1048 limits assumed): as the sequence (P06756 891-1048 limits assumed) above

Row | Structure (SMILES) | pIC50 (Integrin alpha-V/beta-3 [1]) | pIC50 [2] | pIC50 (Integrin alpha-V/beta-3 [3]) | pIC50 (Integrin alpha-V/beta-5) | pIC50 (Integrin alpha-V/beta-6) | pIC50 (Integrin alpha-V/beta-1) | Vd [4] | bioavailability [5] | half-life [6] | AUC/dose (Rattus norvegicus) | clearance [7]
1 | O=C(O)C[C@H](Cc1nc(CCCCNc2cc(N3CCOCC3)ccn2)no1)c1ccc2c(c1)OCO2 | 9.11 | 7.77 | 9.13 | 8.34 | 5.36 |  |  |  |  |  | 
2 | O=C(O)CC(Cc1nc(CCCc2ccc3c(n2)NCCC3)no1)c1ccc2ncoc2c1 (stereo not given) | 9.30 | 7.18 | 9.49 |  | 6.31 | 8.57 |  |  |  |  | 
3 | Cc1ccnc(NCCCCc2noc(C[C@@H](CC(=O)O)c3ccc4c(c3)OCO4)n2)c1 | 8.70 | 7.04 |  |  |  |  |  |  |  |  | 
4 | CC(C)(CC(=O)O)Cc1nc(CCCc2ccc3c(n2)NCCC3)no1 | 7.70 | 4.90 |  |  |  |  |  |  |  |  | 
5 | O=C(O)CC(Cc1nc(CCCc2ccc3c(n2)NCCC3)no1)c1cnc(C2CC2)s1 (stereo not given) | 8.84 | 6.77 | 9.22 | 8.92 | 5.80 |  | 0.497 L/kg | 96% | 1.8 h | 3050 ng·h/mL/(mg/kg) | 5.56 mL/min/kg
6 | CC(CC(=O)O)(Cc1nc(CCCc2ccc3c(n2)NCCC3)no1)c1cccnc1 (stereo not given) | 8.44 | 6.02 |  |  |  |  |  |  |  |  | 
7 | O=C(O)CC1(Cc2nc(CCCc3ccc4c(n3)NCCC4)no2)CCCC1 | 8.02 | 5.09 |  |  |  |  |  |  |  |  | 
8 | O=C(O)CC(Cc1nc(CCCc2ccc3c(n2)NCCC3)no1)c1ccccc1 (stereo not given) | 8.74 | 6.13 |  |  |  |  |  |  |  |  | 
9 | O=C(O)CC(Cc1nc(CCCc2ccc3c(n2)NCCC3)no1)c1cnn(-c2ccccc2)c1 (stereo not given) | 8.92 | 6.67 |  |  |  |  |  |  |  |  | 
10 | O=C(O)CCCc1nc(CCCc2ccc3c(n2)NCCC3)no1 | 6.80 | 4.49 |  |  |  |  |  |  |  |  | 
11 | O=C(O)CC(Cc1nc(CCCc2ccc3c(n2)NCCC3)no1)c1cnc2ccccc2c1 (stereo not given) | 9.19 | 7.74 |  |  |  |  | 0.622 L/kg | 66% | 1.1 h | 600 ng·h/mL/(mg/kg) | 19.1 mL/min/kg
12 | COc1ccc(C(CC(=O)O)Cc2nc(CCCc3ccc4c(n3)NCCC4)no2)cn1 (stereo not given) | 9.00 | 6.73 |  |  |  |  | 0.694 L/kg | 100% | 1.1 h | 1910 ng·h/mL/(mg/kg) | 12 mL/min/kg
13 | Cc1ncc(C(CC(=O)O)Cc2nc(CCCc3ccc4c(n3)NCCC4)no2)s1 (stereo not given) | 8.89 | 6.37 |  |  |  |  |  |  |  |  | 
14 | O=C(O)C[C@H](Cc1nc(CCCCNc2cc(N3CCSCC3)ccn2)no1)c1ccc2c(c1)OCO2 | 9.59 | 7.66 | 9.21 | 8.54 | 5.57 |  | 0.897 L/kg | 29% | 0.4 h | 60 ng·h/mL/(mg/kg) | 78 mL/min/kg

More lines, in order of rising pIC50 (Integrin alpha-V/beta-3 [1]), values ahead:

Row | pIC50 (Integrin alpha-V/beta-3 [1]) | pIC50 [2] | pIC50 (Integrin alpha-V/beta-3 [3]) | pIC50 (Integrin alpha-V/beta-5) | pIC50 (Integrin alpha-V/beta-6) | pIC50 (Integrin alpha-V/beta-1) | Vd [4] | bioavailability [5] | half-life [6] | AUC/dose (Rattus norvegicus) | clearance [7] | Structure (SMILES)
15 | 6.94 | 4.45 |  |  |  |  |  |  |  |  |  | CC(CC(=O)O)(Cc1nc(CCCc2ccc3c(n2)NCCC3)no1)c1ccccc1 (stereo not given)
16 | 7.92 | 5.03 |  |  |  |  |  |  |  |  |  | CC(CC(=O)O)Cc1nc(CCCc2ccc3c(n2)NCCC3)no1 (stereo not given)
17 | 8.06 | 5.91 | 8.40 | 8.40 | 5.20 |  |  |  |  |  |  | C#CC(CC(=O)O)Cc1nc(CCCc2ccc3c(n2)NCCC3)no1 (stereo not given)
18 | 8.62 | 6.90 |  |  |  |  |  |  |  |  |  | O=C(O)C[C@H](Cc1nc(CCCCNc2ccccn2)no1)c1ccc2c(c1)OCO2
19 | 8.68 | 6.65 | 9.20 |  | 5.52 | 8.01 | 0.803 L/kg | 63% | 1.2 h | 970 ng·h/mL/(mg/kg) | 17.3 mL/min/kg | O=C(O)CC(Cc1nc(CCCc2ccc3c(n2)NCCC3)no1)c1ccc2c(c1)OCC2 (stereo not given)
20 | 8.68 | 6.56 | 8.49 | 7.80 | < 5.00 |  |  |  |  |  |  | CNc1cccc(CCCc2noc(CC(CC(=O)O)c3ccc4c(c3)OCO4)n2)n1 (stereo not given)
21 | 8.76 | 6.38 | 8.96 | 8.43 | 5.43 |  |  |  |  |  |  | O=C(O)CC(Cc1nc(CCCc2ccc3c(n2)NCCC3)no1)c1cccc(F)c1 (stereo not given)
22 | 8.77 |  |  |  |  |  | 0.447 L/kg | 77% | 0.93 h | 710 ng·h/mL/(mg/kg) | 18.2 mL/min/kg | CN1CCNc2nc(CCCc3noc(CC(CC(=O)O)c4ccc5c(c4)OCO5)n3)ccc21 (stereo not given)
23 | 8.80 | 6.32 | 9.11 | 8.48 | 5.62 |  |  |  |  |  |  | O=C(O)CC(Cc1nc(CCCc2ccc3c(n2)NCCC3)no1)c1cccnc1 (stereo not given)
24 | 8.96 | 7.19 |  |  |  |  |  |  |  |  |  | COc1ccnc(NCCCCc2noc(C[C@@H](CC(=O)O)c3ccc4c(c3)OCO4)n2)c1
25 | 9.40 | 7.57 | 9.19 | 8.77 | 5.58 | 8.59 | 0.733 L/kg | 95% | 1.4 h | 1500 ng·h/mL/(mg/kg) | 10.9 mL/min/kg | O=C(O)C[C@H](Cc1nc(CCCc2ccc3c(n2)NCCC3)no1)c1ccc2c(c1)OCO2
